Like-named read-outs stand apart in the source and are kept apart here.
Assays:
AdV 4 = assay: Antiviral EC50 against AdV 4 (method not given); format: cell-based, adenovirus 4; settings: Human mastadenovirus E; AdV 4, summary table
AdV 6 = assay: Antiviral EC50 against AdV 6 (method not given); format: cell-based, adenovirus 6; settings: Human mastadenovirus C; AdV 6, summary table
AdV 8 = assay: Antiviral EC50 against AdV 8 (method not given); format: cell-based, adenovirus 8; settings: unidentified adenovirus; AdV 8, summary table
Adenovirus 6 (AdV6) = assay: Neutral red survival assay, AdV6 in A549 cells; format: cell-based
Description: (§1) Similar experiments were carried out with filociclovir against adenovirus 6, adenovirus 7, and adenovirus 8.
(§2) The neutral red cell cytotoxicity assay is used to detect cell viability or drug cytotoxicity. The principle of this assay is based on the detection of viable cells via the uptake of the dye neutral red. Neutral red is a eurhodin dye that stains lysosomes in viable cells. Viable cells can take up neutral red via active transport and incorporate the dye into their lysosomes, but non-viable cells cannot not take up this chromophore. Consequently, after washing, viable cells can release the incorporated dye under acidified-extracted conditions. The amount of released dye can be used to determine the total number of viable cells or drug cytotoxicity. As such, cytotoxicity is expressed as a concentration-dependent reduction of the uptake of neutral red after exposure to the compound under investigation.
Neutral red survival assays were carried out in a 96-well format. Briefly, A549 adenocarcinomic human alveolar basal epithelial cells were plated at a concentration of 6×10^3 cells per well one day prior to infection. AdV6 infections were carried out at 5×10^3 PFU per well (an estimated 0.5 PFU/cell at the time of infection). […] Filociclovir plates were read and the results were graphed using GraphPad Prism graphing and statistical software (GraphPad Software, San Diego, Calif.).

[1] = Cytotoxicity, neutral red, uninfected drug control wells of A549 cells; format: cell-based; settings: human, AdV6 row of Table 2
Description: as §2
Neutral red survival assays were carried out in a 96-well format. Briefly, A549 adenocarcinomic human alveolar basal epithelial cells were plated at a concentration of 6×10^3 cells per well one day prior to infection. AdV6 infections were carried out at 5×10^3 PFU per well (an estimated 0.5 PFU/cell at the time of infection). Filociclovir was serially diluted 1:3 on separate 96-well plates with a no drug final row as control. […] Filociclovir plates were read and the results were graphed using GraphPad Prism graphing and statistical software (GraphPad Software, San Diego, Calif.).

AdV7 = assay: CPE reduction assay, adenovirus 7; format: cell-based
Description: as §1

[2] = Pharmacokinetics in immunosuppressed Syrian hamsters; format: in vivo; settings: for detectability after administration (FIG. 5): 6 hours after administration
Description: In order to test the pharmacokinetics of filociclovir, Syrian hamsters were given either an oral (p.o. 50 mg/kg) or intravenous (i.v. 10 mg/kg) dose of filociclovir.
For i.v. administration, filociclovir was dissolved in DMSO (Sigma D2650) and then diluted with water to a final concentration of 5 mg/ml for filociclovir and 75% DMSO. The dosing solutions were prepared one day before use and stored at 4° C.
Male hamsters were purchased from Envigo (Harlan) at ˜100 g body weight. […] The animals received three injections of CP before the administration of filociclovir. Two groups of animals (12 hamsters/group) were used for the two routes of administrations. In addition, three untreated animals (the same three hamsters for both routes) served as mock controls. The p.o. and i.v. experiments were performed on two consecutive days. As the hamsters weighed approximately 100 g, (+/−10%), they were administered 1 ml and 0.2 ml for the p.o. and i.v. routes, respectively, to achieve the desired dose. For both routes, 3 hamsters were sacrificed at 0.5, 1, 3, and 6 h post dosing.
Plasma and liver samples were collected from all animals and stored at −80° C. until analyzed by LC MS as follows: • All samples and standards were processed on ice; • Standard curve is constructed with authentic compound (fresh powder DMSO reconstitution spiked into “blank” Hamster plasma) and all samples spiked with 500 ng/mL carbamezapine (Internal Standard); • Early time point samples are diluted in “blank” hamster plasma (try to attain concentrations on the standard curve); • Sample extracted with 2× sample volume with 0.1% ammonium formate in methanol (i.e. 30 μL sample+60 μL 0.1% ammonium formate in methanol); • Extracted samples centrifuged on maximum setting in microfuge; • Supernatants are analyzed by LC/MS/MS Dynamic Multiple Reaction Monitoring (DMRM) utilizing custom method.

HHV-6A = settings: β Herpesvirus, cited from earlier work
HHV-6B = settings: cited from earlier work
EBV = settings: γ Herpesvirus, cited from earlier work
HHV-8 = settings: γ Herpesvirus, cited from earlier work
VZV = settings: α Herpesvirus, cited from earlier work
BK Virus = settings: Polyomavirus, cited from earlier work
JC Virus = settings: Polyomavirus, cited from earlier work
Adenovirus 5 (AdV5) = settings: AdV 5‡, summary table; cited from earlier work

`Nc1nc2c(ncn2/C=C2/CC2(CO)CO)c(=O)[nH]1` [Filociclovir, 2-amino-9-{(Z)-[2,2-bis(hydroxymethyl)cyclopropylidene]methyl}-3,9-dihydro-6H-purin-6-one] gave an EC50 (AdV 4) of 2400 nM, an EC50 (AdV 6) of 2000 nM and an EC50 (AdV 8) of 2000 nM. The “concentration effective to improve viability of AdV6 infected cells (FIG. 2)” value (Adenovirus 6 (AdV6); A549 cells, 6 days post-infection, 'as low as') was ≥ 10^−1 μM, the CC50/EC50 (Adenovirus 6 (AdV6); AdV6) was 27 and the CC50 at 6 days [1] was > 100000 nM. The CC50/EC50 (AdV7) was >144, the oral bioavailability ([2]; hamsters) was “good oral bioavailability” and the “detectability after administration (FIG. 5)” value ([2]; i.v. 10 mg/kg) was “still detectable”. The “detectability after administration (FIG. 5)” value ([2]; p.o. 50 mg/kg) was “still detectable”, the EC50 (HHV-6A; listed as filociclovir) was ≤ 10000 nM and the EC50 (HHV-6A) was 1300 nM. For the same compound, the EC50 (HHV-6B) was 2300 ± 1000 nM, the EC50 (HHV-6B; listed as filociclovir) was ≤ 10000 nM and the EC50 (EBV; listed as filociclovir) was ≤ 10000 nM. For the same compound, the EC50 (EBV) was 1000 ± 940 nM, the EC50 (HHV-8; listed as filociclovir) was ≤ 10000 nM and the EC50 (HHV-8) was 5600 ± 5000 nM. For the same compound, the EC50 (VZV; listed as filociclovir) was ≤ 10000 nM, the EC50 (VZV) was 1500 ± 1600 nM and the EC50 (BK Virus; listed as filociclovir) was ≤ 50000 nM. For the same compound, the EC50 (BK Virus) was 34000 ± 17000 nM, the EC50 (JC Virus; listed as filociclovir) was ≤ 50000 nM and the EC50 (JC Virus) was 46000 ± 44000 nM. For the same compound, the EC50 (Adenovirus 5 (AdV5)) was 2200 ± 400 nM.
